Experimental data reported in ChEMBL document CHEMBL1143951, “Synthesis and cytotoxicity evaluation of 22,23-oxygenated stigmastane derivatives” (Bioorg Med Chem, 2008).

How the values were obtained:
[1] = system: MCF7; test: Cytotoxicity against human MCF7 cells after 48 hrs by MTT assay; format: functional, cell-based
[2] = system: HepG2; test: Cytotoxicity against human HepG2 cells after 48 hrs by MTT assay; format: functional, cell-based

SMILES	Activity [1]	Activity [2]
CCC(C(C)C)[C@@H](O)[C@H](O)[C@@H](C)[C@H]1CC[C@H]2[C@@H]3C[C@@H]4O[C@@]45C[C@@H](O)CC[C@]5(C)[C@H]3CC[C@]12C (stereo partly specified)	Toxic	–
CCC(C(C)C)[C@@H](O)[C@H](O)[C@@H](C)[C@H]1CC[C@H]2[C@@H]3C[C@@H](O)[C@@]4(O)C[C@@H](O)CC[C@]4(C)[C@H]3CC[C@]12C (stereo partly specified)	Toxic	Toxic
CCC(C(C)C)[C@@H](O)[C@H](O)[C@@H](C)[C@H]1CC[C@H]2[C@@H]3CC=C4C[C@@H](O)CC[C@]4(C)[C@H]3CC[C@]12C (stereo partly specified)	Toxic	Toxic
CCC(C(C)C)[C@@H](O)[C@H](O)[C@@H](C)[C@H]1CC[C@H]2[C@@H]3C(=O)C=C4C[C@@H](O)CC[C@]4(C)[C@H]3CC[C@]12C (stereo partly specified)	Toxic	Toxic
CCC(C(C)C)[C@H]1O[C@@H]1[C@@H](C)[C@H]1CC[C@H]2[C@@H]3[C@H](O)C=C4C[C@@H](O)CC[C@]4(C)[C@H]3CC[C@]12C (stereo partly specified)	Toxic	Toxic
CC[C@@H](C(C)C)[C@@H](O)[C@H](O)[C@@H](C)[C@H]1CC[C@H]2[C@@H]3CCC4=CC(=O)CC[C@]4(C)[C@H]3CC[C@]12C	Toxic	–
CC[C@@H](C(C)C)[C@@H](O)[C@H](O)[C@@H](C)[C@H]1CC[C@H]2[C@@H]3CC(=O)C4=CC(=O)CC[C@]4(C)[C@H]3CC[C@]12C	Toxic	–
